Results from paper PMC5404532, “Simplified Reversed Chloroquines To Overcome Malaria Resistance to Quinoline-Based Drugs” (Antimicrobial Agents and Chemotherapy, 2017).
Read-outs that look alike come from different tables or passages of the source.

Assays:
P. falciparum 7G8 (CQR) = test: Inhibition of P. falciparum growth, CQR 7G8 (SYBR green I fluorescence); format: cell-based, Plasmodium falciparum
From the text: (§1) Inhibition of P. falciparum growth.
(§2) CQS (D6) and CQR (Dd2 and 7G8) P. falciparum maintained continuously in culture were used ([38]). […] The fluorescence readings were plotted against log(drug), and the IC50s were obtained from curve fitting performed by nonlinear regression using either Prism (GraphPad) or Excel (Microsoft) software.

P. falciparum D6 (CQS) [1] = test: Inhibition of P. falciparum growth, CQS D6 (SYBR green I fluorescence); format: cell-based
From the text: as §1, §2

P. falciparum Dd2 (CQR) [2] = test: Inhibition of P. falciparum growth, CQR Dd2 (SYBR green I fluorescence); format: cell-based
From the text: as §1, §2

P. falciparum D6 (CQS) [3] = settings: ref Andrews et al. (32); cited from earlier work
P. falciparum Dd2 (CQR) [4] = settings: ref Andrews et al. (32); cited from earlier work
mouse spleen lymphocytes [5] = settings: ref Andrews et al. (32); cited from earlier work
P. yoelii = test: In vivo 3-day suppressive test against P. yoelii in a murine malaria model; design: species or system Plasmodium yoelii; settings: mice, oral gavage, 3 daily doses, water-soluble hydrochloride or phosphate salts; errors estimated ±20%
Procedure: A selection of the compounds (compounds 9, 10, 12, 21, 23, and 24) was tested in vivo against P. yoelii in a murine malaria model. The compounds were first converted to water-soluble hydrochloride or phosphate salts for administration in aqueous solution. Efficacy testing was carried out using 4 different dose levels with 5 mice at each level, administered by oral gavage. […] A single-dose toxicity evaluation was also performed, using 1 or 2 mice in each case. The doses were limited by water solubilities.
In vivo 3-day suppressive test.
Female CF-1 mice, at 4 to 5 weeks of age, were injected intravenously with 10^6 erythrocytes infected with P. yoelii ([43][–][45]). The following day, and then daily for a total of 3 doses, 5 mice each were administered the appropriate dose of the compound by gavage and evaluated by direct microscopic analysis of Giemsa-stained blood smears ([46]) 1 day after the final dose. The Portland State University Institutional Animal Care and Use Committee approved the protocols involving animals used in this study.

mouse spleen lymphocytes [6] = test: Cytotoxicity against mouse spleen lymphocytes; format: cell-based; settings: estimated ±50%
[7] = Single-dose toxicity evaluation in mice; format: in vivo; settings: for Toxicity observation: single-dose experiments on 1 or 2 mice/compound, doses limited by water solubility
Procedure: The compounds were first converted to water-soluble hydrochloride or phosphate salts for administration in aqueous solution. Efficacy testing was carried out using 4 different dose levels with 5 mice at each level, administered by oral gavage. […] A single-dose toxicity evaluation was also performed, using 1 or 2 mice in each case.

[8] = In vitro heme binding (optical titration); settings: 5 μM heme, phosphate buffer 100 mM, pH 5.7; read-out: heme binding dissociation constant (Kd)
Procedure: In vitro heme binding and β-hematin inhibition.
A 5 mM stock solution of heme was prepared by dissolving heme chloride in 0.1 mM NaOH by incubation at 37°C for 30 min. The solution was stored at 4°C for no more than 1 month. At the beginning of each experiment, the stock heme solution was diluted to 5 μM in phosphate buffer (100 mM, pH 5.7) and allowed to equilibrate for 4 h. The 4-h equilibration allowed for the initial heme absorbance to stabilize prior to beginning the titration. Optical titrations with each compound were performed by successive addition of aliquots of its stock solution to the 5 μM heme solution. […] Equilibrium binding constants were determined by nonlinear least-squares analysis ([39]).

[9] = Plasmodium falciparum, 7G8, 72 h, read-out: IC50 (nM) for P. falciparum 7G8
[10] = Plasmodium falciparum, D6, 72 h; read-out: IC50 (nM) for P. falciparum D6
[11] = Plasmodium falciparum, DD2, 72 h; read-out: IC50 (nM) for P. falciparum Dd2
[12] = Plasmodium falciparum, D6; read-out: IC50 from dose-response curve against CQS D6 (Fig 4a)
[13] = Plasmodium falciparum, DD2; read-out: IC50 from dose-response curve against CQR Dd2 (Fig 4b)

Structure (SMILES)	IC50 (P. falciparum 7G8 (CQR); [9])	IC50 (P. falciparum D6 (CQS) [1]; [10])	IC50 (P. falciparum Dd2 (CQR) [2]; [11])	also measured
O=C(c1ccccc1)N1CCN(CCCNc2ccnc3cc(Cl)ccc23)CC1 [Compound 20, N-(3-(4-Benzoylpiperazin-1-yl)propyl)-7-chloroquinolin-4-amine]	7 nM	4 nM	7 nM	
O=C(CNCCNc1ccnc2cc(Cl)ccc12)N(Cc1ccccc1)Cc1ccccc1 [Compound 2]				IC50 (P. falciparum D6 (CQS) [3]): 14 nM; IC50 (P. falciparum Dd2 (CQR) [4]): 16 nM; Cytotoxicity (mouse spleen lymphocytes [5]): 62,000 nM
Clc1ccc2c(NCCCN3CCN(c4ccccc4)CC3)ccnc2c1 [Compound 9, 7-Chloro-N-(3-(4-phenylpiperazin-1-yl)propyl)quinolin-4-amine]	0.6 nM	0.4 nM	0.7 nM	ED50 (P. yoelii): 2 mg/kg/day; Cytotoxicity (mouse spleen lymphocytes [6]): 6,400 nM; Toxicity observation [7]: Well tolerated at 300 mg/kg; dose without evident toxicity as multiple of the ED50 ([7]; single-dose toxicity screen in mice vs ED50 against P. yoelii): 150 fold; Kd [8]: ~5000 nM; IC50 (P. falciparum D6 (CQS) [1]; [12]): 0.5 nM; IC50 (P. falciparum Dd2 (CQR) [2]; [13]): 0.5 nM
Clc1ccc2c(NCCCN3CCN(CCc4ccccc4)CC3)ccnc2c1 [Compound 18, 7-Chloro-N-(3-(4-phenethylpiperazin-1-yl)propyl)quinolin-4-amine]	1.2 nM	0.5 nM	1 nM	
O=[N+]([O-])c1cnc(N2CCN(CCCNc3ccnc4cc(Cl)ccc34)CC2)c([N+](=O)[O-])c1 [Compound 26, 7-Chloro-N-(3-(4-(3,5-dinitropyridin-2-yl)piperazin-1-yl)propyl)quinolin-4-amine]	0.9 nM	0.5 nM	0.9 nM	
Clc1ccc2c(NCCCN3CCN(Cc4ccccc4)CC3)ccnc2c1 [Compound 17, N-(3-(4-Benzylpiperazin-1-yl)propyl)-7-chloroquinolin-4-amine]	9 nM	2.4 nM	7 nM	
Clc1ccc2c(NCCCN3CCN(c4ncccn4)CC3)ccnc2c1 [Compound 23, 7-Chloro-N-(3-(4-(pyrimidin-2-yl)piperazin-1-yl)propyl)quinolin-4-amine]		1.4 nM	2.3 nM	ED50 (P. yoelii): 7 mg/kg/day; Cytotoxicity (mouse spleen lymphocytes [6]): 28,000 nM
CCN(CC)CCCC(C)Nc1ccnc2cc(Cl)ccc12 (centres unmarked) [CQ, chloroquine]				IC50 (P. falciparum 7G8 (CQR); Plasmodium falciparum, 7G8, 72 h, read-out: IC50 (nM) for P. falciparum 7G8, CQR 7G8, 72 h, averages from at least 3 runs, normalized to CQ 108 nM, uncertainty ±15%): 106 nM; IC50 (P. falciparum 7G8 (CQR); read-out: IC50 (nM) for P. falciparum 7G8, CQR 7G8, 72 h, averages from at least 3 runs, normalized to CQ 108 nM, uncertainty ±15%): 108 nM; IC50 (P. falciparum D6 (CQS) [1]; Plasmodium falciparum, D6, 72 h, read-out: IC50 (nM) for P. falciparum D6): 6.9 nM; IC50 (P. falciparum D6 (CQS) [1]; Plasmodium falciparum, D6, read-out: IC50 from dose-response curve against CQS D6 (Fig 4a)): 7.9 nM; IC50 (P. falciparum Dd2 (CQR) [2]; Plasmodium falciparum, DD2, 72 h, read-out: IC50 (nM) for P. falciparum Dd2): 102 nM; IC50 (P. falciparum Dd2 (CQR) [2]; Plasmodium falciparum, DD2, read-out: IC50 from dose-response curve against CQR Dd2 (Fig 4b)): 71.7 nM
O=[N+]([O-])c1ccc(N2CCN(CCCNc3ccnc4cc(Cl)ccc34)CC2)c([N+](=O)[O-])c1 [Compound 27, 7-Chloro-N-(3-(4-(2,4-dinitrophenyl)piperazin-1-yl)propyl)quinolin-4-amine]	0.4 nM	0.3 nM	0.5 nM	
O=[N+]([O-])c1ccc(N2CCN(CCCNc3ccnc4cc(Cl)ccc34)CC2)nc1 [Compound 24, 7-Chloro-N-(3-(4-(5-nitropyridin-2-yl)piperazin-1-yl)propyl)quinolin-4-amine]	0.5 nM	0.3 nM	0.5 nM	ED50 (P. yoelii): 3 mg/kg/day; Toxicity observation [7]: Well tolerated at 153 mg/kg^c
Clc1ccc2c(NCCCN3CCN(c4ccccc4-c4ccccc4)CC3)ccnc2c1 [Compound 6, N-(3-(4-(Biphenyl-2-yl)piperazin-1-yl)propyl)-7-chloroquinolin-4-amine]		1.2 nM	2.6 nM	Cytotoxicity (mouse spleen lymphocytes [6]): 1,700 nM
Clc1ccc2c(NCCCN3CCN(c4ccccn4)CC3)ccnc2c1 [Compound 21, 7-Chloro-N-(3-(4-(pyridin-2-yl)piperazin-1-yl)propyl)quinolin-4-amine]	0.9 nM	0.7 nM	1.1 nM	ED50 (P. yoelii): 6 mg/kg/day; Cytotoxicity (mouse spleen lymphocytes [6]): 13,300 nM; Toxicity observation [7]: Well tolerated at 435 mg/kg
Clc1ccc2c(NCCCN3CCN(Cc4cccc5ccccc45)CC3)ccnc2c1 [Compound 19, 7-Chloro-N-(3-(4-(naphthalen-1-ylmethyl)piperazin-1-yl)propyl)quinolin-4-amine]	0.8 nM	1.1 nM	1.1 nM	
COc1ccc(N2CCN(CCCNc3ccnc4cc(Cl)ccc34)CC2)cc1 [Compound 12, 7-Chloro-N-(3-(4-(4-methoxyphenyl)piperazin-1-yl)propyl)quinolin-4-amine]	0.3 nM	1.3 nM	0.3 nM	ED50 (P. yoelii): 10 mg/kg/day; Toxicity observation [7]: Well tolerated at 500 mg/kg; Kd [8]: ~5000 nM
Clc1ccc(N2CCN(CCCNc3ccnc4cc(Cl)ccc34)CC2)cc1 [Compound 10, 7-Chloro-N-(3-(4-(4-chlorophenyl)piperazin-1-yl)propyl)quinolin-4-amine]	0.1 nM	0.3 nM	0.5 nM	ED50 (P. yoelii): 8 mg/kg/day; Toxicity observation [7]: Death at 260 mg/kg, delayed death of 2/4 mice at 64 mg/kg
FC(F)(F)c1ccc(N2CCN(CCCNc3ccnc4cc(Cl)ccc34)CC2)nc1 [Compound 25, 7-Chloro-N-(3-(4-(5-(trifluoromethyl)pyridin-2-yl)piperazin-1-yl)propyl)quinolin-4-amine]	1 nM	0.5 nM	0.9 nM	

Now from value to compound, other results behind:

IC50 (P. falciparum 7G8 (CQR); [9])	IC50 (P. falciparum D6 (CQS) [1]; [10])	IC50 (P. falciparum Dd2 (CQR) [2]; [11])	Structure (SMILES)	also measured
	0.9 nM	1.8 nM	Clc1ccc2c(NCCCN3CCN(c4cccc(-c5ccccc5)c4)CC3)ccnc2c1 [Compound 7, N-(3-(4-(Biphenyl-3-yl)piperazin-1-yl)propyl)-7-chloroquinolin-4-amine]	Cytotoxicity (mouse spleen lymphocytes [6]): 2,100 nM
0.3 nM	0.9 nM	0.8 nM	O=[N+]([O-])c1ccc(N2CCN(CCCNc3ccnc4cc(Cl)ccc34)CC2)cc1 [Compound 14, 7-Chloro-N-(3-(4-(4-nitrophenyl)piperazin-1-yl)propyl)quinolin-4-amine]	
0.3 nM	0.06 nM	0.2 nM	FC(F)(F)c1ccc(N2CCN(CCCNc3ccnc4cc(Cl)ccc34)CC2)cc1 [Compound 13, 7-Chloro-N-(3-(4-(4-(trifluoromethyl)phenyl)piperazin-1-yl)propyl)quinolin-4-amine]	Kd [8]: ~5000 nM
0.2 nM	2 nM	0.2 nM	Fc1ccc(N2CCN(CCCNc3ccnc4cc(Cl)ccc34)CC2)cc1 [Compound 11, 7-Chloro-N-(3-(4-(4-fluorophenyl)piperazin-1-yl)propyl)quinolin-4-amine]	Kd [8]: ~5000 nM
0.2 nM	0.6 nM	0.9 nM	Clc1ccc2c(NCCCN3CCN(c4ccc(-c5ccccc5)cc4)CC3)ccnc2c1 [Compound 8, N-(3-(4-(Biphenyl-4-yl)piperazin-1-yl)propyl)-7-chloroquinolin-4-amine]	Cytotoxicity (mouse spleen lymphocytes [6]): 2,200 nM; IC50 (P. falciparum D6 (CQS) [1]; [12]): 0.7 nM; IC50 (P. falciparum Dd2 (CQR) [2]; [13]): 0.7 nM
1.1 nM	0.5 nM	1.6 nM	Clc1ccc2c(NCCCN3CCN(c4ccncc4)CC3)ccnc2c1 [Compound 22, 7-Chloro-N-(3-(4-(pyridin-4-yl)piperazin-1-yl)propyl)quinolin-4-amine]	
0.5 nM	0.1 nM	1.3 nM	Cc1ccc(N2CCN(CCCNc3ccnc4cc(Cl)ccc34)CC2)cc1 [Compound 15, 7-Chloro-N-(3-(4-p-tolylpiperazin-1-yl)propyl)quinolin-4-amine]	
